Measured values from publication PMC6888825, “Regulation of vanillate and syringate catabolism by a MarR-type transcriptional regulator DesR in Sphingobium sp. SYK-6” (Scientific Reports, 2019).

What was measured:
[1] = biological target: T1, DesR (SLG_12870) (Sphingobium sp. SYK-6, UniProt G2IQU0); test: EMSA, inhibition of DNA binding by purified DesR; conditions: effector (derepression); […] DesR, […] DIG-labelled desB, ligM or desR upstream probes, […] compound, pH […] °C
T1 construct: homodimer (42 kDa by SEC)
T1 sequence (G2IQU0 1-172): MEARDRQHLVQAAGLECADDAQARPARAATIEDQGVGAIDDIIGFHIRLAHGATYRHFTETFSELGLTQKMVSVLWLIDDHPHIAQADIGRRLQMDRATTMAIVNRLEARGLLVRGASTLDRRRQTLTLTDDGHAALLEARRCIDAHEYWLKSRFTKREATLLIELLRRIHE

[2] = biological target: DesR, MarR-type transcriptional regulator (SLG_12870) of Sphingobium sp. SYK-6, His tag-fused (Sphingobium sp. SYK-6); test: SEC; purified DesR (ca. 400 µg) on Superdex 200 Increase 10/300GL, 10 mM KH2PO4-K2HPO4 buffer (pH 7.4) with 140 mM NaCl, 1.0 ml/min; mass estimated against gel-filtration calibration kits (HMW and LMW)
[3] = system: T2, DesR (His-DesR) (Sphingobium sp. SYK-6), ORF:abc5f351; test: EMSA; conditions: EMSA: 20 mM HEPES pH 7.6, 1 mM EDTA, 10 mM (NH4)2SO4, 1 mM DTT, 0.2% Tween 20, 30 mM KCl, 1 ug poly[d(I-C)], 500 pM probe, 20 C, 20 min
T2 sequence: T1 sequence (G2IQU0 1-172)

Compound | EMSA, inhibition of DNA binding by purified DesR [1] | also measured
COc1cc(C(=O)O)cc(OC)c1O [SA, syringate] | decrease in the shift bands of the three probes was also observed in a concentration-dependent manner | –
COc1cc(C(=O)O)ccc1O [VA, vanillate] | In the presence of VA, shift bands of these three probes decreased in a concentration-dependent manner | –
DesR, MarR-type transcriptional regulator (SLG_12870) of Sphingobium sp. SYK-6, His tag-fused (natural protein) | – | stoichiometry N [2]: 2
GCCGTTCCCCTCTCAGGCGCTCGAGATCGACAAAGGTCCGCGCCTTGCGCCGGATCAAGGACAGAGCTTGGCCGTGGACGGCCCGGAGTGACCGGATTTTCCGGCCGGTTTCACGCACTGCCCATTCGAAAAAATTTCGTTTGTGTCACATACAGAAGTTCGGCAGTCTGCCGGCATTGCTCAGCACCGGGCGGACCCGGAAGCCGAACATGCAGGAGAGGTCATATGGCAAAGATCATCGGCGGTTT (double strand) [desBp1] | – | binding [3]: binds
